Data taken from PubChem BioAssay (NCI).
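Five compound concentrations were applied to cells in 96-well plates for 48 hours; endpoints were derived by simple linear interpolation of the resulting dose-response curve. GI50 = concentration required for 50% inhibition of growth. TGI: total growth inhibition.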

Columns and labels:
Assay in all cases: DTP human tumour cell line panel, 48 h
UO-31 renal = tested on: UO-31 renal
NCI-H460 lung = tested on: NCI-H460 lung
SK-OV-3 ovarian = tested on: SK-OV-3 ovarian
SW-620 colon = tested on: SW-620 colon
OVCAR-8 ovarian = tested on: OVCAR-8 ovarian
NCI/ADR-RES ovarian = tested on: NCI/ADR-RES ovarian
SK-MEL-28 melanoma = tested on: SK-MEL-28 melanoma
OVCAR-4 ovarian = tested on: OVCAR-4 ovarian
LOX IMVI melanoma = tested on: LOX IMVI melanoma
ACHN renal = tested on: ACHN renal

| SMILES | GI50 (UO-31 renal) | TGI (UO-31 renal) | GI50 (NCI-H460 lung) | TGI (NCI-H460 lung) | GI50 (SK-OV-3 ovarian) | TGI (SK-OV-3 ovarian) | GI50 (SW-620 colon) | TGI (SW-620 colon) | GI50 (OVCAR-8 ovarian) | TGI (OVCAR-8 ovarian) | GI50 (NCI/ADR-RES ovarian) | TGI (NCI/ADR-RES ovarian) | GI50 (SK-MEL-28 melanoma) | TGI (SK-MEL-28 melanoma) | GI50 (OVCAR-4 ovarian) | TGI (OVCAR-4 ovarian) | GI50 (LOX IMVI melanoma) | TGI (LOX IMVI melanoma) | GI50 (ACHN renal) | TGI (ACHN renal) |
| --- | --- | --- | --- | --- | --- | --- | --- | --- | --- | --- | --- | --- | --- | --- | --- | --- | --- | --- | --- | --- |
| COc1ccc(-c2cncn2-c2cc(OC)c(OC)c(OC)c2)cc1F | 0.0717 µM | 64.8 µM | < 0.01 µM | > 100 µM | < 0.0486 µM | 57.2 µM | < 0.0177 µM | > 100 µM | < 0.0488 µM | > 100 µM | 0.0108 µM | > 100 µM | 0.0359 µM | > 100 µM | 1.19 µM | > 100 µM | < 0.01 µM | 64.9 µM | – | – |
| Cc1ccc(-c2cc(/C=N/O)on2)cc1 | 36.4 µM | > 100 µM | 63.6 µM | > 100 µM | > 100 µM | > 100 µM | 65.7 µM | > 100 µM | > 100 µM | > 100 µM | 45.4 µM | > 100 µM | > 100 µM | > 100 µM | > 100 µM | > 100 µM | 53.3 µM | > 100 µM | 54.8 µM | > 100 µM |
| CCOC(=O)C(Cc1ccc(OC)cc1)C(=O)OCC | 5.63 µM | 19.7 µM | 4.12 µM | 15.1 µM | 10.7 µM | 55.8 µM | – | – | 5.24 µM | 32.5 µM | 3.77 µM | 19 µM | – | – | 6.23 µM | 26.5 µM | 3.56 µM | 13.7 µM | 7.33 µM | 22.3 µM |
| CCOc1ccc(NC(=O)CCC(=O)NN)cc1 | – | > 100 µM | – | > 100 µM | – | – | – | > 100 µM | – | > 100 µM | – | – | – | > 100 µM | – | > 100 µM | – | > 100 µM | – | > 100 µM |
| OC1C2C=CCC1CCC2 (centres undefined) | – | > 100 µM | – | > 100 µM | – | > 100 µM | – | > 100 µM | – | > 100 µM | – | – | – | > 100 µM | – | > 100 µM | – | > 100 µM | – | > 100 µM |
| CC(=O)/C=C/C1=C(c2ccsc2)c2ccccc2CC1 | 19.4 µM | 43.6 µM | 34.4 µM | > 100 µM | 64.4 µM | > 100 µM | 33.7 µM | > 100 µM | 18.2 µM | 39.3 µM | – | – | 49.1 µM | > 100 µM | > 100 µM | > 100 µM | 17.9 µM | 31.9 µM | 25.9 µM | 61.1 µM |
| NC(=O)CCC(NC(=O)C(F)(F)F)C(=O)O (centres undefined) | – | > 100 µM | – | > 100 µM | – | > 100 µM | – | > 100 µM | – | > 100 µM | – | – | – | > 100 µM | – | > 100 µM | – | > 100 µM | – | > 100 µM |
| CCOC(=O)CNC(=O)C(CSC(=O)N(C)O)NC(=O)CCC(N)C(=O)O (centres undefined) | > 2000 µM | > 2000 µM | > 2000 µM | > 2000 µM | > 2000 µM | > 2000 µM | > 2000 µM | > 2000 µM | > 2000 µM | > 2000 µM | – | – | > 2000 µM | > 2000 µM | > 2000 µM | > 2000 µM | > 2000 µM | – | > 2000 µM | > 2000 µM |
| CCOC(=O)C1(Cc2ccc3ccccc3c2)CCCCCN1 (centres undefined) | – | 82.1 µM | – | 34.7 µM | – | > 100 µM | – | 64.9 µM | – | > 100 µM | – | – | – | 88.9 µM | – | > 100 µM | – | 39.6 µM | – | > 100 µM |
| Cc1cc(C)c2[s+]snc2c1 | – | > 100 µM | – | > 100 µM | – | > 100 µM | – | > 100 µM | – | > 100 µM | – | – | – | > 100 µM | – | > 100 µM | – | > 100 µM | – | > 100 µM |
| O=C1c2ccccc2C(=O)c2sc(Nc3ccc(Cl)c(Cl)c3)nc21 | – | 4.97 µM | – | 34.2 µM | – | 32.1 µM | – | 3.19 µM | – | 8.02 µM | – | – | – | 20.7 µM | – | 5.69 µM | – | 4.73 µM | – | 3.17 µM |
| C[N+]1=c2c3cccc4cccc(c(=O)n2CCC1)c43 | – | 39.5 µM | – | 37.7 µM | – | 80.1 µM | – | > 100 µM | – | 39.9 µM | – | – | – | 39.6 µM | – | 42.9 µM | – | 29.4 µM | – | 51.8 µM |
| CC1=NN(c2ccccc2)C(=O)C1N=Nc1ccc(Br)c(C)c1 (centres undefined) | – | – | – | > 100 µM | – | > 100 µM | – | > 100 µM | – | > 100 µM | – | – | – | > 100 µM | – | > 100 µM | – | – | – | > 100 µM |
| Nn1c(N=Nc2c(O)[nH]c3ccccc23)n[nH]c1=S | – | > 100 µM | – | > 100 µM | – | > 100 µM | – | > 100 µM | – | > 100 µM | – | – | – | > 100 µM | – | > 100 µM | – | > 100 µM | – | > 100 µM |
| CP(C)C.[Ag][I] | – | > 100 µM | – | > 100 µM | – | > 100 µM | – | > 100 µM | – | > 100 µM | – | – | – | > 100 µM | – | 69.5 µM | – | > 100 µM | – | > 100 µM |
| NNC(=S)N/N=C/C(Cl)=C(\Cl)C(=O)O | – | > 100 µM | – | > 100 µM | – | – | – | > 100 µM | – | > 100 µM | – | – | – | > 100 µM | – | > 100 µM | – | > 100 µM | – | > 100 µM |
| CC12C(=O)N(CCN)C(=O)C1C1c3ccccc3C2c2ccccc21 (centres undefined) | – | > 100 µM | – | > 100 µM | – | > 100 µM | – | > 100 µM | – | > 100 µM | – | – | – | > 100 µM | – | > 100 µM | – | – | – | > 100 µM |
| OC(c1ccccc1)c1c(-c2ccccc2)oc(-c2ccccc2)c1C(O)c1ccccc1 (centres undefined) | – | 25 µM | – | 28.8 µM | – | 30.1 µM | – | 34.1 µM | – | – | – | 24.9 µM | – | 27.9 µM | – | 7.99 µM | – | 25.2 µM | – | 19.1 µM |
| CN1CCN(c2ccc3nc4c(nc3c2C(F)(F)F)C(=O)c2ncccc2C4=O)CC1 | 1.33 µM | 2.84 µM | 0.273 µM | 1.32 µM | 1.98 µM | 4.98 µM | 1.42 µM | 3.52 µM | 1.97 µM | 8.96 µM | 2.33 µM | 6.94 µM | 1.99 µM | 4.18 µM | 1.07 µM | 2.26 µM | 1.04 µM | 2.66 µM | – | – |
